In the Biogen ADME set (Fang et al. 2023):
In brackets after ≈: the same amount, converted by molar mass.

Settings: for aqueous solubility: pH 6.8

Structure (SMILES) | MDR1-MDCK efflux ratio | intrinsic clearance, human liver microsomes [mL/min/kg] | intrinsic clearance, rat liver microsomes [mL/min/kg] | aqueous solubility [µg/mL] | fraction unbound, human plasma | fraction unbound, rat plasma
Cn1c(CNC(=O)Cc2ccccc2)nc2ccccc21 | 2.25 | 7.54 | 89.6 | 44.8 (≈ 160 µM) |  | 
O=C(NC[C@H]1CCN(c2ccccc2)C1)N1CCc2sccc2C1 | 0.834 | 226 | 2510 | 16.9 (≈ 49.3 µM) |  | 
COc1ncnc2c1CN(Cc1c[nH]nc1-c1ccc(F)cc1)CC2 | 7.03 | 70.7 | 210 | 28.4 (≈ 83.5 µM) |  | 
Cc1ccc(CNc2cncc(-n3nc(C)cc3C)n2)cn1 |  | 23.4 | 252 |  |  | 
CC[C@@H]1[C@H](F)C(=O)N[C@@H]1COc1nccc2cc(C(N)=O)c(OC)cc12 | 61.7 | 35 | 218 | 53.6 (≈ 148 µM) |  | 
Cc1cnc(NCC2(CO)CCCC2)nc1N(C)C | 0.95 | 29.7 | 1050 |  |  | 
Cc1oc2cc(OCC(=O)Nc3nccs3)ccc2c(=O)c1Oc1ccc(F)cc1 | 0.97 |  |  | 0.5 (≈ 1.17 µM) |  | 
Cn1ccc(C(=O)NCCc2cc3nc(-c4ccncc4)ccn3n2)n1 |  | 8.83 | 105 |  |  | 
O=C(Cc1ccc(Cl)cc1)NCc1ccncc1 | 0.772 | ≤ 4.74 | 35.9 | 51.6 (≈ 198 µM) |  | 
Cc1ccc(S(=O)(=O)N2CCCc3ccc(NS(=O)(=O)c4ccc(F)cc4C)cc32)cc1 |  | 186 | 2420 |  |  | 
CCc1ccc(-c2nccn2Cc2c(C)nn(CC)c2C)o1 | 3.28 | 246 | 3020 | 40.5 (≈ 136 µM) |  | 
C=CC(=O)Nc1cccc(Nc2nc(Nc3ccc(Oc4ccnc(C(=O)NC)c4)cc3)ncc2F)c1 | 13.2 | 66.5 | 322 |  | 0.00395 | 
COc1cccc(Cc2cnc(N)s2)c1 | 0.671 | 17.8 | 281 |  |  | 
CS(=O)(=O)Cc1cc(-c2ccccc2)on1 |  |  |  | 31.3 (≈ 132 µM) |  | 
O=c1oc2cccnc2n1Cc1cnn(-c2ccccc2)n1 |  | ≤ 4.74 | 63.7 |  |  | 
O=C(Cn1nc2n(c1=O)-c1ccccc1C1=NCCN12)N1CCCc2ccccc21 | 7.27 | 256 | 1670 | 1.63 (≈ 4.07 µM) |  | 
Cc1cccc(-c2nc(C34CCC(C(N)=O)(CC3)CC4)[nH]c2-c2ccc3c(c2)OCO3)n1 |  |  |  |  | 0.105 | 0.0162
Cc1cc(-n2nc(C)cc2N)nc(C)n1 |  | 58.9 | 125 |  |  | 
Cc1cc2c(s1)c1cnn(Cc3ccccc3F)c(=O)c1n2C |  | 326 | 2650 |  |  | 
COc1ccc(OCc2n[nH]c(-c3n[nH]c4c3CCC4)n2)cc1 | 2.2 | 50.9 | 1070 |  |  | 
CC1CC1C(=O)N1CCC(n2c(=O)[nH]c3ccccc32)CC1 (centres undefined) |  | ≤ 4.74 | 162 | 32.2 (≈ 108 µM) |  | 
Cc1ccc(C(=O)O)cc1NS(=O)(=O)c1csc(C(=O)Nc2ccccc2)c1 | 0.879 | ≤ 4.74 | ≤ 10.7 | 61.5 (≈ 148 µM) |  | 
CC(C)c1nnc(CN2CCN(c3ccccc3Cl)CC2)o1 | 0.652 | 91 | 869 | 50.7 (≈ 158 µM) |  | 
